Here are results for one substance from patent US7834006B2, “Fused polycyclic compounds” (Ajinomoto Co., Inc., priority 2004, dated 2010).

In the assay the test system is adipose cells of rats. The experiment in a line: Evaluation of the sugar transporting capacity (2-[14C(U)]-deoxy-D-glucose incorporation). It is filed as cell-based. As to conditions: insulin 100 nM; rat adipose cells; 2-deoxy-D-glucose incorporation.

Description: Preparation of Adipose Cells of Rats:
After the decapitation and venesection of 6 male Wistar rats (body weight: 150 to 200 g), an incision was made in the abdomen of each rat to extract 6 g in total of epididymal adipose tissues. The tissues were finely cut into 2 mm×2 mm pieces in 6 ml of KRH (Krebs-Ringer Hepes, composition: 130 mM of sodium chloride, 4.7 mM of potassium chloride, 1.2 mM of potassium dihydrogenphosphate, 1.2 mM of magnesium sulfate, 1 mM of calcium chloride and 25 mM of Hepes, pH=7.6) containing 5% of BSA (bovine serum albumin). 24 mg of collagenase (type I) was added thereto and the digestion treatment was conducted for about 40 minutes to obtain about 6 ml of isolated adipose cells. The collagenase was removed by the buffer exchange. 2% BSA/KRH solution was added to the residue for the re-suspension to obtain 45 ml of an adipose cell suspension.
Evaluation of the Sugar Transporting Capacity: […]
The sugar transporting capacity was evaluated by measuring the quantity of 2-[^14C(U)]-deoxy-D-glucose incorporated per a unit time. […] The quantity of 2-[^14C(U)]-deoxy-D-glucose contained in the adipose cell layer was determined with a liquid scintillation counter to determine the quantity of the incorporated sugar.

On to insulin, for which the “effect of increasing the sugar-transporting capacity versus insulin-free control group” value was “about 7 times”.
